These results are taken from PubChem BioAssay AID330 (DTP/NCI, 2004).

Inconclusive results and toxic doses are left out.

The experiment relates to P388 leukemia ip, CD2F1 mice, survival T/C. Nature of the experiment: NCI In Vivo Anticancer Drug Screen. Data for tumor model P388 Leukemia (intraperitoneal) in CD2F1 (CDF1) mice. The following applies: endpoint: median survival time, higher = longer survival. The method, boiled down: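 Mice carrying the transplanted tumor received test compound or vehicle. Survival was recorded in each group, and the value is the treated-group measurement divided by that of the vehicle-treated control group.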

Where [1] appears, read: dose: 60.0 mg/kg/injection, schedule: Q01DX005 (ip), vehicle: Klucel + Tween-80.
Where [2] appears, read: dose: 120.0 mg/kg/injection, schedule: Q01DX005 (ip), vehicle: Klucel + Tween-80.
The mark [3] stands for this setting: dose: 240.0 mg/kg/injection, schedule: Q01DX005 (ip), vehicle: Klucel + Tween-80.
Where [4] appears, read: dose: 50.0 mg/kg/injection, schedule: Q01DX005 (ip), vehicle: saline.
[5] abbreviates: dose: 100.0 mg/kg/injection, schedule: Q01DX005 (ip), vehicle: saline.

`CCC1CC(C)C(O)/C=C/C=C/CC(C)OC(=O)CC(O)C(OC)C1OC1CC(C)(O)C(O)C(C)O1` (stereo not drawn): the T/C is, setting by setting: (dose: 10.5 mg/kg/injection, schedule: Q01DX005 (ip), vehicle: Klucel (hydroxypropylcellulose) (HPC)) 112 % of control; (dose: 21.0 mg/kg/injection, schedule: Q01DX005 (ip), vehicle: Klucel (hydroxypropylcellulose) (HPC)) 102 % of control; (dose: 42.0 mg/kg/injection, schedule: Q01DX005 (ip), vehicle: Klucel (hydroxypropylcellulose) (HPC)) 105 % of control; (dose: 84.0 mg/kg/injection, schedule: Q01DX005 (ip), vehicle: Klucel (hydroxypropylcellulose) (HPC)) 102 % of control.
In the case of `CCC1(C#N)N=C(c2ccccc2)c2ccccc2N1C(=O)Oc1ccccc1` (stereo not drawn), the T/C reads like this: (dose: 50.0 mg/kg/injection, schedule: Q01DX005 (ip), vehicle: saline with Tween-80) 89 % of control; (dose: 100.0 mg/kg/injection, schedule: Q01DX005 (ip), vehicle: saline with Tween-80) 98 % of control; (dose: 200.0 mg/kg/injection, schedule: Q01DX005 (ip), vehicle: saline with Tween-80) 95 % of control.
As for `CC1(C)N=C(N/N=C/c2ccccc2)SP1(=O)NNc1ncccn1` (stereo not drawn), the T/C by setting is: (dose: 60.0 mg/kg/injection, schedule: Q01DX005 (ip), vehicle: Klucel (hydroxypropylcellulose) (HPC)) 101 % of control; (dose: 120.0 mg/kg/injection, schedule: Q01DX005 (ip), vehicle: Klucel (hydroxypropylcellulose) (HPC)) 103 % of control.
As to `CO[C@H]1/C=C/O[C@@]2(C)Oc3c(C)c(O)c4c(O)c(c(/C=N/N5CCCN(Cc6ccccc6)CC5)c(O)c4c3C2=O)NC(=O)/C(C)=C\C=C\[C@H](C)[C@H](O)C(C)[C@@H](O)C(C)[C@H](OC(C)=O)[C@@H]1C` (stereo partly drawn), the T/C (dose: 25.0 mg/kg/injection, schedule: Q01DX009 (ip), vehicle: suspension in saline) was 107 % of control.
As for `CCCCC(CCCCCC(CCCC)C1NCCc2cc(OC)c(OC)cc21)C1NCCc2cc(OC)c(OC)cc21` (stereo not drawn), the T/C by setting is: (dose: 6.25 mg/kg/injection, schedule: Q01DX005 (ip), vehicle: saline with Tween-80) 91 % of control; (dose: 12.5 mg/kg/injection, schedule: Q01DX005 (ip), vehicle: saline with Tween-80) 93 % of control; (dose: 25.0 mg/kg/injection, schedule: Q01DX005 (ip), vehicle: saline with Tween-80) 93 % of control.
Take `c1ccc(Cc2cc(-c3cc(Cc4ccccc4)[nH]n3)n[nH]2)cc1`: the T/C is 101 % of control under setting [1], 106 % of control under setting [2] and 107 % of control under setting [3].
For the molecule `CN(C)CCCN1c2ccccc2Oc2ccc(Cl)cc21`, the T/C is 105 % of control under setting [4] and 106 % of control under setting [5].
With `Nc1nc(N)c(-c2ccc(Cl)cc2)c(COc2ccc(NC(=O)c3ccc(NC(=O)CCl)cc3)cc2)n1`, the T/C was 104 % of control (dose: 25.0 mg/kg/injection, schedule: Q01DX001 (ip), vehicle: saline); 107 % of control (dose: 50.0 mg/kg/injection, schedule: Q01DX001 (ip), vehicle: saline); 114 % of control (dose: 100.0 mg/kg/injection, schedule: Q01DX001 (ip), vehicle: saline).
For the molecule `Cc1ccc(S(=O)(=O)O/N=C(/C#N)c2ccccc2)cc1`, the T/C (dose: 50.0 mg/kg/injection, schedule: Q01DX009 (ip), vehicle: saline) is 101 % of control; the T/C (dose: 100.0 mg/kg/injection, schedule: Q01DX009 (ip), vehicle: saline with Tween-80) was 102 % of control; the T/C (dose: 100.0 mg/kg/injection, schedule: Q01DX009 (ip), vehicle: saline) is 99 % of control; the T/C (dose: 200.0 mg/kg/injection, schedule: Q01DX009 (ip), vehicle: saline with Tween-80) is 101 % of control; the T/C (dose: 200.0 mg/kg/injection, schedule: Q01DX009 (ip), vehicle: saline) is 105 % of control; the T/C (dose: 400.0 mg/kg/injection, schedule: Q01DX009 (ip), vehicle: saline with Tween-80) was 97 % of control.
For the molecule `COC(=S)C(=S)OC`, the T/C by setting is: (dose: 12.5 mg/kg/injection, schedule: Q01DX009 (ip), vehicle: saline with Tween-80) 108 % of control; (dose: 25.0 mg/kg/injection, schedule: Q01DX009 (ip), vehicle: saline with Tween-80) 108 % of control.
Take `Cc1cccc(NC(=O)Oc2ccc(Cl)c3cccnc23)c1`: the T/C is 112 % of control (dose: 50.0 mg/kg/injection, schedule: Q01DX009 (ip), vehicle: Klucel (hydroxypropylcellulose) (HPC)); 102 % of control (dose: 100.0 mg/kg/injection, schedule: Q01DX009 (ip), vehicle: Klucel (hydroxypropylcellulose) (HPC)); 114 % of control (dose: 200.0 mg/kg/injection, schedule: Q01DX009 (ip), vehicle: Klucel (hydroxypropylcellulose) (HPC)).
For the molecule `Cc1[nH]c2ccccc2c1-c1cc(-c2cc(-c3c(C)[nH]c4ccccc34)on2)no1`, the T/C runs as follows: under setting [1], 97 % of control; under setting [2], 100 % of control; under setting [3], 103 % of control.
In the case of `CC(=O)C(N)=O`, the T/C was 98 % of control under setting [4]; 100 % of control under setting [5]; 101 % of control (dose: 200.0 mg/kg/injection, schedule: Q01DX005 (ip), vehicle: saline).
